The results in this text go back to paper PMC9867837 (Cancer letters, 2022).

The target of data set [1] is T1, wtpYStat3 (Homo sapiens, UniProt P40763).
T1 construct: made in house; host or cells: E. coli BL21(DE3) TKB1 (inducible tyrosine kinase)
Kind of data set: EMSA with purified wild-type pYStat3. It is filed as biochemical. To be noted: 3 μM H182, 30 min. The text has this: (§1) This construct was used to generate the mutants, Stat3C328A, Stat3C426A, Stat3C468A, and Stat3C542S, as described in detail in Supplementary Information “Methods”.
(§2) The expression of un-phosphorylated and tyrosine phosphorylated His-tagged recombinant wtStat3 and mutant Stat3 proteins in BL21 (DE3) bacterial cells is described in detail in Supplementary Information “Methods”.
Given the MS data, we conducted site-directed mutagenesis analysis for the effects of Cys mutations (Cys-to-Ala or Cys-to-Ser mutations) on the inhibitory activities or potencies of the compounds. […]
(§3) In another case, the nuclear extract was pre-incubated with the radiolabeled probe for 30 min at 30 °C prior to incubation with increasing concentration of H182 at room temperature for 30 min and subjecting to EMSA analysis. Bands corresponding to Stats DNA- binding activities were scanned and quantified using ImageJ and plotted as a percentage of control (vehicle) against the concentration of the inhibitor, from which the IC50 values were derived . […]
(§4) These studies were performed as previously reported using the v-Src -transformed NIH3T3/v-Src fibroblasts [1 -5] . […] Luciferase activity was normalized to total protein concentration of cell lysate, which was determined by Bradford assay (Bio-Rad, Hercules, CA) . […]
Background: A gel shift assay detects complexes by their altered migration in electrophoresis.

In data set [2] the target is T2, pYStat3C468A (Homo sapiens, UniProt P40763, C468A).
T2 construct: made in house; host or cells: E. coli BL21(DE3) TKB1 (inducible tyrosine kinase)
Briefly: EMSA with purified mutant pYStat3C468A. It is filed as biochemical.
Source text: as §1, §2
Given the MS data, we conducted site-directed mutagenesis analysis for the effects of Cys mutations (Cys-to-Ala or Cys-to-Ser mutations) on the inhibitory activities or potencies of the compounds. […] Purified, phosphorylated wild-type (wt)Stat3, and phosphorylated mutants, Stat3C328A, Stat3C426A, Stat3C468A, and Stat3C542S protein samples of equal amounts were pre-incubated with or without 3 μM H182 for 30 min at room temperature prior to incubation with the radiolabeled hSIE probe that binds Stat3 and subjecting to EMSA analysis. […] Focusing on the C426 and C468, we next conducted dose-response studies for effects of H182 on Stat3C426A and Stat3C468A. […] Equal proteins used in the DNA-binding assay/EMSA analysis are shown by SDS-PAGE Coomassie staining (Fig. 3B, lower). […]
as §3, §4

Data set [3] concerns Stat3-independent pLucSRE luciferase reporter. Kind of data set: Stat3-independent luciferase reporter pLucSRE in NIH3T3/v-Src. To be noted: 1–3 μM H182 for 1 h. It is filed as cell-based, mouse. For orientation: Reporter assays use an easily measured gene product as a stand-in for the process of interest.
In data set [4] the target is T3, CYP2C9 (Homo sapiens, UniProt P11712).
T3 construct: Eurofins-CEREP (contract research organisation that ran the assay)
Briefly: CYP inhibition, CYP2C9. It is filed as in vitro ADME. The conditions noted are these: read-out: CYP Inhibition CYP2C9 % Inh at 10 μM. On the procedure:
(§5) The in vivo activity of a compound is influenced by its overall bioavailability, which is also driven by parameters, such as solubility, permeability, and metabolism. […] These values are all above the industry cut-off of 60 μg/ml. […] It has CLint in human hepatocytes of 16 μL/min/10^6 cells, which falls into moderate stability range [43].

The target of data set [5] is T4, CYP2D6 (Homo sapiens, UniProt P10635).
T4 construct: Eurofins-CEREP (contract research organisation that ran the assay)
Kind of data set: CYP inhibition, CYP2D6. To be noted: read-out: CYP Inhibition CYP2D6 % Inh at 10 μM. The data set is classed as in vitro ADME. The procedure: as §5

Data set [6] in a line: Plasma stability, mouse. The data set is classed as in vitro ADME. On the procedure: Solubility, human (HLM) and mouse liver microsomal (MLM), and plasma stability studies were performed by Eurofins Cerep Panlabs and Eurofin Discovery Services (www.eurofins.com/PharmaDiscovery), while protein binding studies were performed by Sanford Burnham Prebys Chemical Biology & Drug Discovery Core using standard protocols.

Molecules are shown by their SMILES.

T2 sequence (P40763 127-711 C468A): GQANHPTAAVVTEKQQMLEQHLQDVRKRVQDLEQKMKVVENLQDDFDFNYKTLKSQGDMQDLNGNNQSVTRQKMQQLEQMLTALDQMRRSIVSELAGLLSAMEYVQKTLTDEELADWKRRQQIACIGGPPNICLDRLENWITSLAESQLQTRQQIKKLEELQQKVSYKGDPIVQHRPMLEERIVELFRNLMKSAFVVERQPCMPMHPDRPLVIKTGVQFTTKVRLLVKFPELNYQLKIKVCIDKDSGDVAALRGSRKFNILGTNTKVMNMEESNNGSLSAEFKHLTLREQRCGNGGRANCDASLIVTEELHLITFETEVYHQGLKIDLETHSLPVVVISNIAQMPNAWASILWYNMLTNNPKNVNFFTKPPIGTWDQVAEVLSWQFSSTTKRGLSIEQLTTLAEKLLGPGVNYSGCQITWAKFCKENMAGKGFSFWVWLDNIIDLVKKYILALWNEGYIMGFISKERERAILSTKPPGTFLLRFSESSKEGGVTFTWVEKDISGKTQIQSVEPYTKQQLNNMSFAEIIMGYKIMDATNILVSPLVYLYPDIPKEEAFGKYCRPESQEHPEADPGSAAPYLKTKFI
T4 sequence (P10635 whole entry, species assumed): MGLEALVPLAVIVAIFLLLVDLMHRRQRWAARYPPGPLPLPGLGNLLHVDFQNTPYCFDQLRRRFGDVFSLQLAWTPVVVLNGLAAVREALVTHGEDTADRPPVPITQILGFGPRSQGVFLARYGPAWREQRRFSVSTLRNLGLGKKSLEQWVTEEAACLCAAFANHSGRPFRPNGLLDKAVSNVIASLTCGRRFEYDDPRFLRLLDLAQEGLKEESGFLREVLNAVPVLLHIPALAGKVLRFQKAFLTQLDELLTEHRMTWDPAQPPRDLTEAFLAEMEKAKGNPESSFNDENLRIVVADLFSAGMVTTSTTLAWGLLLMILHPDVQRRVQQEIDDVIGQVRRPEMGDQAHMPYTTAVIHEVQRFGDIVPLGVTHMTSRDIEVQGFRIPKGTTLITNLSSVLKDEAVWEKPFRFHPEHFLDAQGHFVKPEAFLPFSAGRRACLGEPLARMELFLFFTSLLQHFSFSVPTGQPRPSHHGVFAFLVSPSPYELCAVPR
T1 sequence (P40763 127-711): as the sequence (P40763 127-711 C468A) above, with A342C counted along it
T3 sequence (P11712 whole entry, species assumed): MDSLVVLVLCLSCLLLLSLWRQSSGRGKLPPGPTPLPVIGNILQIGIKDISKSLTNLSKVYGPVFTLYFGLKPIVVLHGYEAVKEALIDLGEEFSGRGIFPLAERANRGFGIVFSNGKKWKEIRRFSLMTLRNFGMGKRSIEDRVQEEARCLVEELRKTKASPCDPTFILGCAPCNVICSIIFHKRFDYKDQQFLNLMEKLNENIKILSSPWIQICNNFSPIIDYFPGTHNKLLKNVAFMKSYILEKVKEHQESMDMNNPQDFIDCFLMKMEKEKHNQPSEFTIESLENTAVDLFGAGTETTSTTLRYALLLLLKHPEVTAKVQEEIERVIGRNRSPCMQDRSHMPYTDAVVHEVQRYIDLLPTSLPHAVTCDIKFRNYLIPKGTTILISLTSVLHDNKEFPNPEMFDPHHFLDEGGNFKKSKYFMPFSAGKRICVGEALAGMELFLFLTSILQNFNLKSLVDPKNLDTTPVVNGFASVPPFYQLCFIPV

One may read the IC50 as the midpoint of a concentration-inhibition curve. Low values mean inhibition by little substance, high ones a need for much substance. One may read the inhibition as the change of the read-out against control, counted positive when it falls. Usually fraction remaining stands for the share of the starting amount still present when the sample was taken. The low end stands for a greater loss, the high end for greater stability. As for `O=C([C@H]1CCN1S(=O)(=O)c1c(F)c(F)c(F)c(F)c1F)N(Cc1ccc(C2CCCCC2)cn1)c1ccc2c(=O)[nH]ncc2c1` [Compound H182], in data set [1], the “Effect on DNA-binding activity of wtpYStat3” value was “strong inhibition”. In addition, the “Effect on DNA-binding activity of pYStat3C468A” value in data set [2] (3 μM H182, 30 min) is given as “unaffected”. Also, in data set [2] (10 μM H182), the “Effect on pYStat3C468A activity” value was “no effect”. In data set [2] (EMSA, 0–50 μM H182, 30 min), half-maximal inhibition (IC50) required 40 µM. In addition, the “Effect on pLucSRE luciferase reporter expression” value in data set [3] is given as “no changes”. For the same molecule, the inhibition at 10 µM in data set [4] was 33%; in data set [5], 9%. The amount remaining at 1 h in data set [6] (1 h) was found to be 69%. This molecule returned a fraction remaining at 2 h in data set [6] (2 h) of 23%.
